The test system of data set [1] is Tf1-α cells. In words: cryopreservation of Tf1-α cells, viability/apoptosis by flow cytometry (7-AAD, Annexin V). It counts as cell-based. The settings on record: 55 mM aryl-aldonamide, post-thaw. How it is done: Tf1-α cells were cultured to a final concentration of 2-3×10^6 cells/mL. Three million cells were transferred into cryovials and media were removed by aspiration after centrifugation at 1000 rpm for five minutes. 100 μL of RPMI media (10% FBS) supplemented with the cryopreservative of interest was added to the cryovial and vortexed. The cryovials were cooled at a rate of −1° C./min for 24 hours to −80° C. before being transferred to a liquid nitrogen dewar for storage until analysis.
Cryovials were thawed under fast thaw conditions (submerged in 37° C. water bath). The cells were then diluted to a concentration of 3×10^6 cells/mL with 1× Annexin V Binding Buffer and a cell count was obtained by hemacytometer (to obtain cell recovery). A 400 μL aliquot was transferred to a flow cytommetry tube. 10 μL of each Annexin V FITC (for apoptosis) and 7-AAD (for viability) dyes were added, the tube was vortexed and allowed to incubate in the dark for 15 minutes. The solution was diluted to 1 mL with 1× Annexin V Binding Buffer, vortexed and analyzed by flow cytommetry. […] With 2% DMSO, cell viability reached about 45%, and with 10% DMSO, cell viability reached around 78%.

Data set [2] has as its system CD34+ cells (hematopoietic stem cells). The data set can be described thus: colony forming unit (CFU) assay after cryopreservation of umbilical cord blood. It counts as cell-based, human. The settings on record: for combined results of the CFU assays vs control: UCB units 26, 27, 28 combined, FIG. 41; for BFU-E / CFU-G / CFU-GEMM / CFU-GM / CFU-M / Total Number of Colonies: 10% DMSO, post-thaw, 14 days in Methocult. How it is done:
Aliquots of LC (50,000 CD34^+ cells) are added to 2.0 mL cryovials. For each experiment, four cryovials are prepared (two for post-thaw viability analysis using flow cytometry and two for functionality analysis using the colony forming unit assay). Cryovials are kept on ice until placement in −80° C. freezer. Cryovials are centrifuged at 400 g and 10° C. for 5 minutes to pellet cells. After centrifugation, the time taken until placement in −80° C. freezer should not exceed 10 minutes. Supernatant is removed by aspiration or by decanting, but preferably by aspiration. Plasma (volume depends on desired cryosolution concentration) is added and cells are suspended by pipetting. Pre-made cryosolutions (see Cryosolutions) are added (volume depends on desired cryosolution concentration) and mixed by pipetting. Cryovials are placed in a Mr. Frosty® rate controlled freezing container which is then placed in a −80° C. freezer for 24 hours. By placing the cryovials in the freezing container, their contents undergo a cooling rate of about −1° C. per minute. After 24 hours, the cryovials are transferred to a liquid nitrogen dewar for storage until thawed for analysis.
Cryosolutions are prepared in distilled autoclaved water supplemented with 0.9% saline and 5% dextran for cryopreservation experiments and diluted with different volumes of plasma in cryovials depending on desired concentration of ice recrystallization inhibitor. N-(4-chlorophenyl)-D-gluconamide (4a) and N-(2-fluorophenyl)-D-gluconamide (2a) are prepared at 25 mM and N-(4-methoxyphenyl)-D-gluconamide (3a) and N-(2,6-difluorobenzyl)-D-gluconamide (1b) are prepared at 55 mM. 100, 50, 33 or 20 μL of 25 mM N-(4-chlorophenyl)-D-gluconamide (4a) or N-(2-fluorophenyl)-D-gluconamide (2a) are added to cryovials containing 50,000 CD34^+ cells suspended in 0, 50, 67, or 80 μL of plasma, respectively, for a final IRI concentration of 25, 12.5, 8 or 5 mM, respectively. 100, 50, 33 or 20 μL of 55 mM N-(4-methoxyphenyl)-D-gluconamide (3a) or N-(2,6-difluorobenzyl)-D-gluconamide (1b) are added to cryovials containing 50,000 CD34^+ cells suspended in 0, 50, 67, or 80 μL of plasma, respectively, for a final IRI concentration of […], 18 or 11 mM, respectively.
Cryovials are thawed in a 37° C. water bath and diluted with 900 μL of IMDM (10% FBS, 1% penicillin/streptomycin). Cryovials are placed on ice until washed. Samples are mixed by pipetting and 80 μL is transferred to a 15 mL Falcon tube. 5 mL of Iscove's Modified Dulbecco's Medium (IMDM) supplemented with 10% fetal bovine serum (FBS) is added and this mixture is centrifuged at 1100 rpm for six minutes to yield a cell pellet and a supernatant. The supernatant is removed by aspiration and the cell pellet is resuspended in 1 mL IMDM (2% FBS) to form a suspension. The suspension is mixed by pipetting. 150 μL of this cell suspension is added to 3 mL Methocult™ media and plating is performed in accordance with manufacturer's instruction. The suspension with Methocult™ media is mixed adequately by vortexing for 20 seconds. The contents are allowed to settle and bubbles are allowed to subside before plating (approximately 5-10 minutes). Using a 3 mL syringe and 16 gauge blunt needles, 2.5 mL of the cell suspension in Methocult™ is taken from the bottom. 1 mL of this 2.5 mL is added to two 5 mL cell culture dishes. The dishes are swirled to ensure cells in Methocult™ medium coat the entire bottom of the dish. A third 5 mL dish is prepared to contain distilled autoclaved water without a lid. These three 5 mL dishes are placed in a 100 mL plate; two 5 mL dishes contain 1 mL of cell suspension in Methocult™ medium with the lid on and one containing distilled autoclaved water with the lid off. The lid is placed on the 100 mL plate and stored in a 37° C. incubator (5% CO2) for two weeks.

The nature of data set [3]: splat cooling ice recrystallization inhibition (IRI) assay. Here is the method: In this assay, the area of ice crystals are measured after a 30 minute annealing time at −6.4° C. and compared to a positive control for ice recrystallization resulting in a quantitative measurement of the mean ice grain size. For a positive control, a phosphate buffered saline (PBS) solution was utilized. All samples were normalized to the PBS positive control. The ice recrystallization inhibition activity of the carbohydrate-based non-ionic surfactants n-octyl-β-D-glucopyranoside (compound 3) and n-octyl-β-D-galactopyranoside (compound 4) is shown in FIG. 1.
In this assay, the area of ice crystals are measured after a 30 minute annealing time at −6.4° C. and compared to a positive control for ice recrystallization resulting in a quantitative measurement of the mean ice grain size. For a positive control, a PBS solution was utilized. All samples were normalized to the PBS positive control.
N-aryl-D-gluconamides (3a), (2a), (4a), and (1b) are a class of low molecular weight carbohydrate-based compounds. The ice recrystallization inhibition activity of (3a), (2a), (4a), and (1b) was assessed using a “splat cooling” assay. In this assay, the area of ice crystals are measured after a 30 minutes annealing time at −6.4° C. and compared to a positive control for ice recrystallization resulting in a quantitative measurement of the mean ice grain size. For a positive control, PBS was utilized. All samples were normalized to the PBS positive control.

[4] abbreviates: 22 mM in PBS, 30 min annealing at −6.4° C.

We go through nine molecules from patent US10004222B2, “Small molecule ice recrystallization inhibitors and methods of use thereof” (THE UNIVERSITY OF OTTAWA, priority 2012, dated 2018).

“Also recorded” adds a separate entry of the source.

Take `O=C(Nc1ccccc1)[C@H](O)[C@@H](O)[C@H](O)[C@H](O)CO` [(1a), phenyl-aldonamide]: the “Apoptosis (%)” value in data set [1] (0% DMSO) was 0%; in data set [1] (2% DMSO), 0.9%; in data set [1] (10% DMSO), 4.22%. The figures for the “Cell Viability (%)” value in data set [1] (0% DMSO), in data set [1] (2% DMSO) and in data set [1] (10% DMSO) were 0.07%, 34.71% and 68.82%, respectively.
With `O=C(NCc1cc(F)cc(F)c1)[C@H](O)[C@@H](O)[C@H](O)[C@H](O)CO` [(2b), N-(3,5-difluorobenzyl)-D-gluconamide], the “combined results of the CFU assays vs control” value (“combined results … vs control” below) in data set [2] is recorded as “did not perform particularly well”.
In data set [2] (5 mM IRI), `O=C(Nc1ccccc1Cl)[C@H](O)[C@@H](O)[C@H](O)[C@H](O)CO` [(5a), N-(2-chlorophenyl)-D-gluconamide] showed a BFU-E of 19.2, a CFU-G of 5.0, a CFU-GEMM of 2.3 and a CFU-GM of 5.2. Moreover, in data set [2] (5 mM IRI), the CFU-M is 1.0 and the “Total Number of Colonies” value was found to be 32.7. For the same molecule, in data set [2] (8 mM IRI), the BFU-E was 18.0, the CFU-G amounted to 5.0, the CFU-GEMM is on record as 2.0 and the CFU-GM is reported as 4.0. Moreover, in data set [2] (8 mM IRI), the CFU-M amounted to 2.0 and the “Total Number of Colonies” value is 31.0. For the same molecule, in data set [2] (12.5 mM IRI), the BFU-E is 27.0, the CFU-G amounted to 8.0, the CFU-GEMM is 4.5 and the CFU-GM is given as 6.5. For the same molecule, in data set [2] (12.5 mM IRI), the CFU-M is 1.5 and the “Total Number of Colonies” value is 47.5. In data set [2] (12.5 mM vs DMSO only), the “fold increase in functionality relative to the control” value is listed as 1.5 fold. In data set [2] (25 mM IRI), this molecule gave a BFU-E of 20.5, a CFU-G of 7.0, a CFU-GEMM of 1.0 and a CFU-GM of 11.0. In addition, in data set [2] (25 mM IRI), the CFU-M is reported as 2.5 and the “Total Number of Colonies” value came out at 42.0. Further, the “combined results … vs control” value in data set [2] is given as “did not perform particularly well”.
As to `O=C(Nc1ccc(F)cc1)[C@H](O)[C@@H](O)[C@H](O)[C@H](O)CO` [(6a), N-(4-Fluorophenyl)-D-gluconamide], in data set [2], the “combined results … vs control” value is “did not perform particularly well”.
In the case of `COc1ccccc1NC(=O)[C@H](O)[C@@H](O)[C@H](O)[C@H](O)CO` [(7a), N-(2-methoxyphenyl)-D-gluconamide], the “combined results … vs control” value in data set [2] is recorded as “did not perform particularly well”.
Take `OC[C@@H](O)[C@H](O)[C@H](O)[C@@H](O)CO` [D-dulcitol, reference compound]: in data set [3] (concentration not given), the “ice recrystallization inhibition activity” value is recorded as “decreased activity relative to the pyranose forms”.
For `OC[C@@H](O)[C@@H](O)[C@H](O)[C@@H](O)CO` [D-sorbitol, reference compound], the “ice recrystallization inhibition activity” value in data set [3] (concentration not given) is listed as “decreased activity relative to the pyranose forms”.
As for `CCCCCCCCO[C@@H]1OC(CO)[C@@H](O)[C@H](O)C1O` (stereo partly drawn) [compound 3, n-octyl-β-D-glucopyranoside], the “ice recrystallization inhibition activity” value is “identical to that of D-glucose” in data set [3] (setting [4]) and “still identical to that of the 22 mM D-glucose” in data set [3] (44 mM in PBS).
Turning to `CCCCCCCCO[C@@H]1OC(CO)[C@H](O)[C@H](O)C1O` (stereo partly drawn) [compound 4, n-octyl-β-D-galactopyranoside], the “ice recrystallization inhibition activity” value is “significantly better than 22 mM D-galactose” in data set [3] (11 mM in PBS), “significantly better than 22 mM D-galactose; also recorded: potent” in data set [3] (setting [4]) and “significantly better than 22 mM D-galactose” in data set [3] (44 mM in PBS).
